Measurements: the kinase profiling compilation of Christmann-Franck et al. (2016)

Tests used:
Experiment in all cases: radiometric filter-binding kinase assay
MKNK2 (human) = MKNK2 (human) (UniProt Q9HBH9)
PAK4 (human) = PAK4 (human) (UniProt O96013)
IRAK4 (human) = IRAK4 (human) (UniProt Q9NWZ3)
DAPK1 (human) = DAPK1 (human) (UniProt P53355)
STK3 (human) = STK3 (human) (UniProt Q13188)
IKBKE (human) = IKBKE (human) (UniProt Q14164)
ROCK2 (rat) = settings: accession and sequence are those of the human protein
RPS6KA1 KD1 KD2 (human) = RPS6KA1 KD1 KD2 (human) (UniProt Q15418)
DYRK3 (human) = DYRK3 (human) (UniProt O43781)
MAP3K11 (human) = MAP3K11 (human) (UniProt Q16584)
CLK2 (human) = CLK2 (human) (UniProt P49760)
[1] = tested on: SGK1 (human), O00141 [S422D]
PIM3 (human) = PIM3 (human) (UniProt Q86V86)
NTRK1 (human) = NTRK1 (human) (UniProt P04629)
MAPKAPK3 (human) = MAPKAPK3 (human) (UniProt Q16644)
[2] = tested on: AKT1 (human), P31749 [S473D]
MAP2K6 (human) = MAP2K6 (human) (UniProt P52564)
PIM1 (human) = PIM1 (human) (UniProt P11309)
PIM2 (human) = PIM2 (human) (UniProt Q9P1W9)
MAPK3 (human) = MAPK3 (human) (UniProt P27361)
IKBKB (human) = IKBKB (human) (UniProt O14920)
RPS6KA3 KD1 KD2 (human) = RPS6KA3 KD1 KD2 (human) (UniProt P51812)
MAPK12 (human) = MAPK12 (human) (UniProt P53778)
[3] = tested on: RPS6KB1 (human), P23443 [T412E]
DYRK1A (human) = DYRK1A (human) (UniProt Q13627)
BRSK2 (human) = BRSK2 (human) (UniProt Q8IWQ3)
TBK1 (human) = TBK1 (human) (UniProt Q9UHD2)
MAPKAPK5 (human) = MAPKAPK5 (human) (UniProt Q8IW41)
MAPK14 (human) = MAPK14 (human) (UniProt Q16539)
PLK1 (human) = PLK1 (human) (UniProt P53350)
MAP3K7 TAB1 (human) = MAP3K7 TAB1 (human) (UniProt Q15750+O43318)
MAPK11 (human) = MAPK11 (human) (UniProt Q15759)
EPHB3 (human) = EPHB3 (human) (UniProt P54753)
CSNK2A1 (human) = CSNK2A1 (human) (UniProt P68400)
MAPK8 (human) = MAPK8 (human) (UniProt P45983)

DYRK3 (human), sequence (O43781 whole entry, looked up): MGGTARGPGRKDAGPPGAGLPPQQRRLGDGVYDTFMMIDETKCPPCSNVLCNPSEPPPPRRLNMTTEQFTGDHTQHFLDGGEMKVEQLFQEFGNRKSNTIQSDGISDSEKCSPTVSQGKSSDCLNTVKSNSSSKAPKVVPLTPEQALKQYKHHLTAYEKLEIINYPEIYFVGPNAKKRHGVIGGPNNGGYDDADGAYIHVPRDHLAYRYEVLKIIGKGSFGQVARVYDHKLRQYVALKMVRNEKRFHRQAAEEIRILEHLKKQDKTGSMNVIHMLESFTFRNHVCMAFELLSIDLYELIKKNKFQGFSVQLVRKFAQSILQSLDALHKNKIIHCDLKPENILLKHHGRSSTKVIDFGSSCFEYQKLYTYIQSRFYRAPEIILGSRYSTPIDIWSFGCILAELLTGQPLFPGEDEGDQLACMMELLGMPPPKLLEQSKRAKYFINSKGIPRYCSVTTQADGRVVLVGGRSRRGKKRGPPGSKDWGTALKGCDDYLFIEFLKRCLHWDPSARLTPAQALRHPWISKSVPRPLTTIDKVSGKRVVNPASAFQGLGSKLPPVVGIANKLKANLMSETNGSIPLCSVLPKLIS
EPHB3 (human), sequence (P54753 whole entry, looked up): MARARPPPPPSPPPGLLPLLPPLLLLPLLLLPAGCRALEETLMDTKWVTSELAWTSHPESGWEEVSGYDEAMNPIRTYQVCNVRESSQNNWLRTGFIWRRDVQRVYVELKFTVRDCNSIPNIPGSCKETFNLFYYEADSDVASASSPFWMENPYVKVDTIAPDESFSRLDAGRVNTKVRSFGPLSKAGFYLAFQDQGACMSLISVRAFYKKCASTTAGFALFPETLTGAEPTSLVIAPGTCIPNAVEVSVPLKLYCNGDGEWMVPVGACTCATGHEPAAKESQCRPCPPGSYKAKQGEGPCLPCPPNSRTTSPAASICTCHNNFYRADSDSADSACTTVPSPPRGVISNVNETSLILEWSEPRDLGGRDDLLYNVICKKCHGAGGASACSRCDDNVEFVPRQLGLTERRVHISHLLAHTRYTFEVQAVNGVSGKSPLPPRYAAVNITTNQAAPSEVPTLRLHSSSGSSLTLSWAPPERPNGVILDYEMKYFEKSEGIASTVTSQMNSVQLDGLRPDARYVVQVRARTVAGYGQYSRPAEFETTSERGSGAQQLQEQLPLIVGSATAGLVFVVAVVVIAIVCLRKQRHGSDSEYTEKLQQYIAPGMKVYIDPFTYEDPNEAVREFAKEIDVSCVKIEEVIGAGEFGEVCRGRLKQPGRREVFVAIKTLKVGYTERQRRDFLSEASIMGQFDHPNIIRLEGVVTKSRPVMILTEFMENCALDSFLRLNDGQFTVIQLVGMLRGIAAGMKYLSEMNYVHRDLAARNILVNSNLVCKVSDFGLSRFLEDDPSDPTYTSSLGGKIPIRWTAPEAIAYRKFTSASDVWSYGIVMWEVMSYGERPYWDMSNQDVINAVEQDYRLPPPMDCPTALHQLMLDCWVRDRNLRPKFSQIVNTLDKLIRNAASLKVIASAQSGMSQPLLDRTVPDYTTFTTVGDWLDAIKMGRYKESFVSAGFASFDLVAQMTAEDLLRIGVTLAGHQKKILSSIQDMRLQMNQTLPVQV
BRSK2 (human), sequence (Q8IWQ3 whole entry, looked up): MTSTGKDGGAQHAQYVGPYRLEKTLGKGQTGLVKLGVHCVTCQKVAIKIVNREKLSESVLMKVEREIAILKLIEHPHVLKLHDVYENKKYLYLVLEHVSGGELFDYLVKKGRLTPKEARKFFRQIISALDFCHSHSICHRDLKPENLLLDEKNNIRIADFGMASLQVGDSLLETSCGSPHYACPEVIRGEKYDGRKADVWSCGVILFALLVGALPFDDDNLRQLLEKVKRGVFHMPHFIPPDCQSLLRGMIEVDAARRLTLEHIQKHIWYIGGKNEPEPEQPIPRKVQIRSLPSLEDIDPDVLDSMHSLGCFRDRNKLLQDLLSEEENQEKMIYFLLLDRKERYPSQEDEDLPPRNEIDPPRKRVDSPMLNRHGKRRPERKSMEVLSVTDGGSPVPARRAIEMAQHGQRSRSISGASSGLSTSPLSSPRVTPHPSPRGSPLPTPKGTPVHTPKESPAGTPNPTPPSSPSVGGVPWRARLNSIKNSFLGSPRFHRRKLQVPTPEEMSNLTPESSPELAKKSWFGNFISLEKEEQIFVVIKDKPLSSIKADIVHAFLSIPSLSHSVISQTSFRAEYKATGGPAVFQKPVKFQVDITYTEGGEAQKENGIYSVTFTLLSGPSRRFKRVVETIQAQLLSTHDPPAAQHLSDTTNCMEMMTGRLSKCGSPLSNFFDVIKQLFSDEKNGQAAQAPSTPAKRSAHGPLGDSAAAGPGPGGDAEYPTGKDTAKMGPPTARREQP
MAPKAPK5 (human), sequence (Q8IW41 whole entry, looked up): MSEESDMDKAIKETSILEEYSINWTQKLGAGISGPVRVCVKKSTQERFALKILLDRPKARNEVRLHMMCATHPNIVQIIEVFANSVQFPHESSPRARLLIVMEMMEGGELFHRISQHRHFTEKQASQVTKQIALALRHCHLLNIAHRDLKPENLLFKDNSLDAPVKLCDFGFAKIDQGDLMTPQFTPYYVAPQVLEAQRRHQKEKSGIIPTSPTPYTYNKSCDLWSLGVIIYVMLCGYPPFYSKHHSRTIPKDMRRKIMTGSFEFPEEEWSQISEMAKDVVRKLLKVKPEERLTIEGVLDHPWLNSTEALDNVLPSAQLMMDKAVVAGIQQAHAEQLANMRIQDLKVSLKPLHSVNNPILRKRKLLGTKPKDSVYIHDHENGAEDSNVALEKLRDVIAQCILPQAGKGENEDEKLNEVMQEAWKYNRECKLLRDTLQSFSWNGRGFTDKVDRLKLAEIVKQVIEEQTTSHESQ
RPS6KB1 (human), P23443 [T412E], sequence (P23443 whole entry T412E, looked up): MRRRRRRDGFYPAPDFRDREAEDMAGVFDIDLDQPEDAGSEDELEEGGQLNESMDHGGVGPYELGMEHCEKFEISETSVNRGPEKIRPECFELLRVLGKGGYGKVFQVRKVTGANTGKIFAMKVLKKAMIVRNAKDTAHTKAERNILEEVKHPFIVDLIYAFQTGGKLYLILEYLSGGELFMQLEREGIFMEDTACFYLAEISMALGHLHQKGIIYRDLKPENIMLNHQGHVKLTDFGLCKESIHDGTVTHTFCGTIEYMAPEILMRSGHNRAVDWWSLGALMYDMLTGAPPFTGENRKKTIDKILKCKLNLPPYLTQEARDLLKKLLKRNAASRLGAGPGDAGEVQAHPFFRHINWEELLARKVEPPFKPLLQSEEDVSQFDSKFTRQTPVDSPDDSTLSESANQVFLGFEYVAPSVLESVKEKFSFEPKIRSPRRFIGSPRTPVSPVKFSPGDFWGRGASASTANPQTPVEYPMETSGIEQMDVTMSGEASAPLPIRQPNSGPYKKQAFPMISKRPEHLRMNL
MAPKAPK3 (human), sequence (Q16644 whole entry, looked up): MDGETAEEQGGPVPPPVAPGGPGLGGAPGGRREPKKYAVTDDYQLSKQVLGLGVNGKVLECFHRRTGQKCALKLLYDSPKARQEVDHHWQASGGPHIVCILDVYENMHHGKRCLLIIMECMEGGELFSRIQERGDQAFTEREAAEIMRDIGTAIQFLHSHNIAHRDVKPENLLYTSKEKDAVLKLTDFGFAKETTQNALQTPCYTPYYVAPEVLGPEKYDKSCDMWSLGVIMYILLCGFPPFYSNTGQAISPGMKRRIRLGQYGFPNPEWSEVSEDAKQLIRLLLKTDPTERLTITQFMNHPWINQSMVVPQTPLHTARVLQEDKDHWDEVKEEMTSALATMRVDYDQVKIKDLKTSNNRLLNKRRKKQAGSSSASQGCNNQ
IKBKB (human), sequence (O14920 whole entry, looked up): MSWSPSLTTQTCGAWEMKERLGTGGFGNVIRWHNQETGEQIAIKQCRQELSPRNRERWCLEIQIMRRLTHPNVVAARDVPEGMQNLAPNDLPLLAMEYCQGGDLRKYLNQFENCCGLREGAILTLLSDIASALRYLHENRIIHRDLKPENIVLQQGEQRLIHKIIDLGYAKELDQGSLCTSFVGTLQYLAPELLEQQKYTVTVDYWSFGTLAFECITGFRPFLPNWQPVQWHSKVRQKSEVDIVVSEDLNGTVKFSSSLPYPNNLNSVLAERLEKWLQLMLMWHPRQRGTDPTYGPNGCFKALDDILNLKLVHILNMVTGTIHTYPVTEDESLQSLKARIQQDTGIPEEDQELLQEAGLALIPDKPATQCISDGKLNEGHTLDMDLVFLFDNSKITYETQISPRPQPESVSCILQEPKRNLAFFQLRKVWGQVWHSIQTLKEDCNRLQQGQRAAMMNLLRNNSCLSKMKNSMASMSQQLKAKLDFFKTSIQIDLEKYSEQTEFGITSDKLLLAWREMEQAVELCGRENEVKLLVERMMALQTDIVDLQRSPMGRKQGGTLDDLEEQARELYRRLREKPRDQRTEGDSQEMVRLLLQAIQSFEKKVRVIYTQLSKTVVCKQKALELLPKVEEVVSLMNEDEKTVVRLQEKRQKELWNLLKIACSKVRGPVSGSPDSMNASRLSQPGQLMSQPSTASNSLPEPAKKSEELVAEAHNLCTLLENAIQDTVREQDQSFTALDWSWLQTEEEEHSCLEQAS

SMILES: COc1cc(O)c2c(c1)[C@H]1OC1C[C@H](O)[C@H](O)C(=O)/C=C\C[C@H](C)OC2=O (some centres undefined)
- residual activity (MKNK2 (human); compound 0.01 µM): 91%
- residual activity (MKNK2 (human); compound 0.1 µM): 62%
- residual activity (MKNK2 (human); compound 1.0 µM): 44%
- residual activity (PAK4 (human); compound 0.01 µM): 81%
- residual activity (PAK4 (human); compound 0.1 µM): 100%
- residual activity (IRAK4 (human); compound 0.01 µM): 112%
- residual activity (IRAK4 (human); compound 0.1 µM): 99%
- residual activity (IRAK4 (human); compound 1.0 µM): 57%
- residual activity (DAPK1 (human); compound 0.01 µM): 82%
- residual activity (DAPK1 (human); compound 0.1 µM): 108%
- residual activity (DAPK1 (human); compound 1.0 µM): 96%
- residual activity (STK3 (human); compound 0.01 µM): 97%
- residual activity (STK3 (human); compound 0.1 µM): 89%
- residual activity (STK3 (human); compound 1.0 µM): 102%
- residual activity (IKBKE (human); compound 0.01 µM): 108%
- residual activity (IKBKE (human); compound 0.1 µM): 105%
- residual activity (IKBKE (human); compound 1.0 µM): 92%
- residual activity (ROCK2 (rat); compound 0.01 µM): 91%
- residual activity (ROCK2 (rat); compound 0.1 µM): 94%
- residual activity (ROCK2 (rat); compound 1.0 µM): 99%
- residual activity (RPS6KA1 KD1 KD2 (human); compound 0.1 µM): 92%
- residual activity (RPS6KA1 KD1 KD2 (human); compound 1.0 µM): 85%
- residual activity (DYRK3 (human); compound 0.01 µM): 113%
- residual activity (DYRK3 (human); compound 0.1 µM): 109%
- residual activity (DYRK3 (human); compound 1.0 µM): 124%
- residual activity (MAP3K11 (human); compound 0.1 µM): 102%
- residual activity (MAP3K11 (human); compound 1.0 µM): 90%
- residual activity (CLK2 (human); compound 0.01 µM): 94%
- residual activity (CLK2 (human); compound 0.1 µM): 100%
- residual activity ([1]; compound 0.01 µM): 93%
- residual activity ([1]; compound 0.1 µM): 91%
- residual activity ([1]; compound 1.0 µM): 104%
- residual activity (PIM3 (human); compound 0.01 µM): 92%
- residual activity (PIM3 (human); compound 0.1 µM): 98%
- residual activity (PIM3 (human); compound 1.0 µM): 99%
- residual activity (NTRK1 (human); compound 0.01 µM): 97%
- residual activity (NTRK1 (human); compound 0.1 µM): 90%
- residual activity (NTRK1 (human); compound 1.0 µM): 67%
- residual activity (MAPKAPK3 (human); compound 0.01 µM): 105%
- residual activity (MAPKAPK3 (human); compound 0.1 µM): 99%
- residual activity (MAPKAPK3 (human); compound 1.0 µM): 99%
- residual activity ([2]; compound 0.01 µM): 109%
- residual activity ([2]; compound 0.1 µM): 124%
- residual activity ([2]; compound 1.0 µM): 107%
- residual activity (MAP2K6 (human); compound 0.01 µM): 59%
- residual activity (MAP2K6 (human); compound 0.1 µM): 21%
- residual activity (MAP2K6 (human); compound 1.0 µM): 20%
- residual activity (PIM1 (human); compound 0.01 µM): 90%
- residual activity (PIM1 (human); compound 0.1 µM): 87%
- residual activity (PIM1 (human); compound 1.0 µM): 92%
- residual activity (PIM2 (human); compound 0.01 µM): 93%
- residual activity (PIM2 (human); compound 0.1 µM): 114%
- residual activity (MAPK3 (human); compound 0.01 µM): 111%
- residual activity (MAPK3 (human); compound 0.1 µM): 102%
- residual activity (MAPK3 (human); compound 1.0 µM): 57%
- residual activity (IKBKB (human); compound 0.01 µM): 103%
- residual activity (IKBKB (human); compound 0.1 µM): 100%
- residual activity (IKBKB (human); compound 1.0 µM): 112%
- residual activity (RPS6KA3 KD1 KD2 (human); compound 0.01 µM): 129%
- residual activity (RPS6KA3 KD1 KD2 (human); compound 0.1 µM): 125%
- residual activity (RPS6KA3 KD1 KD2 (human); compound 1.0 µM): 129%
- residual activity (MAPK12 (human); compound 0.01 µM): 100%
- residual activity (MAPK12 (human); compound 0.1 µM): 105%
- residual activity ([3]; compound 0.01 µM): 87%
- residual activity ([3]; compound 0.1 µM): 92%
- residual activity ([3]; compound 1.0 µM): 106%
- residual activity (DYRK1A (human); compound 0.01 µM): 98%
- residual activity (DYRK1A (human); compound 0.1 µM): 105%
- residual activity (DYRK1A (human); compound 1.0 µM): 101%
- residual activity (BRSK2 (human); compound 0.01 µM): 114%
- residual activity (BRSK2 (human); compound 0.1 µM): 93%
- residual activity (BRSK2 (human); compound 1.0 µM): 96%
- residual activity (TBK1 (human); compound 0.01 µM): 110%
- residual activity (TBK1 (human); compound 0.1 µM): 112%
- residual activity (TBK1 (human); compound 1.0 µM): 93%
- residual activity (MAPKAPK5 (human); compound 0.01 µM): 74%
- residual activity (MAPKAPK5 (human); compound 0.1 µM): 72%
- residual activity (MAPKAPK5 (human); compound 1.0 µM): 32%
- residual activity (MAPK14 (human); compound 0.01 µM): 108%
- residual activity (MAPK14 (human); compound 0.1 µM): 105%
- residual activity (MAPK14 (human); compound 1.0 µM): 105%
- residual activity (PLK1 (human); compound 0.01 µM): 102%
- residual activity (PLK1 (human); compound 0.1 µM): 107%
- residual activity (PLK1 (human); compound 1.0 µM): 114%
- residual activity (MAP3K7 TAB1 (human); compound 0.01 µM): 101%
- residual activity (MAP3K7 TAB1 (human); compound 0.1 µM): 48%
- residual activity (MAP3K7 TAB1 (human); compound 1.0 µM): 2%
- residual activity (MAPK11 (human); compound 0.01 µM): 88%
- residual activity (MAPK11 (human); compound 0.1 µM): 93%
- residual activity (MAPK11 (human); compound 1.0 µM): 98%
- residual activity (EPHB3 (human); compound 0.01 µM): 118%
- residual activity (EPHB3 (human); compound 0.1 µM): 130%
- residual activity (EPHB3 (human); compound 1.0 µM): 92%
- residual activity (CSNK2A1 (human); compound 0.01 µM): 123%
- residual activity (CSNK2A1 (human); compound 0.1 µM): 121%
- residual activity (CSNK2A1 (human); compound 1.0 µM): 133%
- residual activity (MAPK8 (human); compound 0.01 µM): 104%
- residual activity (MAPK8 (human); compound 0.1 µM): 98%
- residual activity (MAPK8 (human); compound 1.0 µM): 80%
